One assay concerns the target T1, human NK1 receptors (Homo sapiens, UniProt P25103).
T1 construct: expressed in transfected cells; host or cells: CHO cells (membrane preparation)
Nature of the assay: Binding of the test substances to NK1 receptors in vitro ([3H]-Substance P displacement, CHO cell membranes). To be noted: [3H]-Substance P as ligand; membranes of CHO cells expressing the human NK1 receptor; Ki calculated from IC50; read-out: pKi (NK1) (converted). Here is the method:
In The Netherlands, the affinity of the test substances to human NK1 receptors was measured in vitro.
The receptor binding studies were performed with [^3H]-Substance P as ligand. For the binding test, different samples of a membrane preparation of CHO cells (= egg cells of the Chinese hamster, Chinese hamster oocytes), which express the human NK1 receptor ("Accession Number" of the associated nucleic acid sequence = M74290; "Accession Number" of the associated protein sequence = P25103; cf. Takeda, Y.; Chou, K. B., Takeda, J.; Sachais, B.S. and Krause, J. E; Biochemical and Biophysical Research Communications, 179(3) (1991) 1232 - 1240), were incubated with a solution of the marked ligand, with the incubation mixtures containing no test substance or additions of different concentrations of test substance. Then, separation of bound and free ligands was performed in each of the samples with the aid of glass-fibre filtration. The fraction remaining in the filter was washed several times with buffer solution and then the radioactivity of the fraction remaining in the filter was measured using a beta scintillation counter.
For the compounds of Examples 1 to 14, that concentration which effects half maximum displacement of the bound ligand was determined as IC50 of the respective test substance. From this, the corresponding inhibition constant (Ki value) of the test substance was calculated, and was stated as the negative common logarithm of the Ki value (= pKi value). The pKi value is a measurement of the affinity of the test substances to human NK1 receptors.

The target in assay [1] is T2, NK1 receptors (Cavia porcellus, UniProt P30547). Nature of the assay: NK-1-receptor-antagonistic effectiveness in vivo in anaesthetised guinea pigs (NKA test stimulus, early hypotension). Also noted: from tissue; host or cells: whole anaesthetised guinea pig (in vivo); species or system Pirbright-White guinea pigs. The settings on record: guinea pig, iv, read-out: ED50 iv after 1 min (cumulative) NK1 (early hypotension). From the text: (§1) The NK-1- and NK-2-antagonistic activities of the test substances were investigated in anaesthetised guinea pigs in each case after intravenous (= i.v.) and oral (= p.o.) administration in vivo. With the present test model it is possible to detect both NK-2-antagonistic effects in three different organ systems (respiratory tracts, colon and circulation) and NK-1-antagonistic effects (rapid drop in blood pressure) in an animal simultaneously.
T2 sequence (P30547 whole entry): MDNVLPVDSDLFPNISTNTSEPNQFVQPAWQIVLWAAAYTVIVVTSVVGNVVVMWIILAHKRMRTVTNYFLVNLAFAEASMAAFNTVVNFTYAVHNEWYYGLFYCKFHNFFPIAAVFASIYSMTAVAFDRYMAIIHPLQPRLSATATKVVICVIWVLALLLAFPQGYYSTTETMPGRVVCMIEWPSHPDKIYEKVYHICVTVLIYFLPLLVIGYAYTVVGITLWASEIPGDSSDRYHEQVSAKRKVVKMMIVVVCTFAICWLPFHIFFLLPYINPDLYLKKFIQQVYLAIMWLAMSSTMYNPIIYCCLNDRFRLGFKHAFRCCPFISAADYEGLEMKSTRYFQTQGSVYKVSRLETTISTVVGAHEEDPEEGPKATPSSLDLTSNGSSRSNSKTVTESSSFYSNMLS
(§2) Pirbright-White guinea pigs of a body weight of 500-700 g were anaesthetised with ketamine/xylazine (67/13 mg/kg subcutaneously, initial dose, further doses administered as required). The animals were provided with an intravenous catheter in order to administer the substance and an intra-arterial catheter to measure the blood pressure. The animals were artificially ventilated via a tracheal cannula and the respiratory pressure was recorded by means of a pressure transducer. A balloon was introduced into the distal colon of the animals for manometric recording of colon motility by means of a pressure transducer. Blood pressure, heart rate, respiratory pressure and colonic pressure were measured continuously for each animal and plotted on a recorder and by means of a digital data-processing system. […] The second phase of delayed hypotension (= phase of maximum hypotension after 2-5 min.) on the other hand is mediated via NK-2 receptors, since they can be blocked by specific NK-2 receptor antagonists. […] Table 6: NK-1- and NK-2-receptor-antagonistic effective-ness of the test substances of Formula I on guinea pigs in vivo after intravenous administration
(§3) These ED50 values obtained from cumulative dose effect curves are plotted in table 6.
(§4) The antagonistic effects of the test substances were then determined as "area under the curve" ("AUC") over the investigation period after administration of the test substances (1 - 180 min after administration) and the ED50 values after oral administration obtained therefrom were plotted in table 7. Table 7: NK-1- and NK-2-receptor-antagonistic effective-ness of the test substances of Formula I on guinea pigs in vivo after oral administration

For a further assay, the target named is T3, human NK2 receptors (Homo sapiens, UniProt P21452).
T3 construct: expressed in transfected cells; host or cells: CHO cells (membrane preparation)
T3 sequence (P21452 1-398): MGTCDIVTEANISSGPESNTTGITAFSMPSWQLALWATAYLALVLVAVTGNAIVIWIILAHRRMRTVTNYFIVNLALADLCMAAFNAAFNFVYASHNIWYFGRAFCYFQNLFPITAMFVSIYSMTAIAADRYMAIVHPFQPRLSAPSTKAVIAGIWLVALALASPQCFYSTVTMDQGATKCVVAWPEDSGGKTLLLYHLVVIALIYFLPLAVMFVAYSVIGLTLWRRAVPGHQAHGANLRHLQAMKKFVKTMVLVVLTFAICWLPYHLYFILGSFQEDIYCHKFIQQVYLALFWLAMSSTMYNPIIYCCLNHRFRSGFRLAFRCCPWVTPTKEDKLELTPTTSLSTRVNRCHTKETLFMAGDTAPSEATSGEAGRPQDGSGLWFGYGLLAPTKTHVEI
Nature of the assay: Binding of the test substances to NK2 receptors in vitro ([3H]-SR 48968 displacement, CHO cell membranes). To be noted: [3H]-SR 48968 as ligand; membranes of CHO cells expressing the human NK2 receptor; 90 min incubation; Ki calculated from IC50; read-out: pKi (NK2) (converted). Here is the method:
The affinity of the test substances to human NK2 receptors was measured in vitro. The ability of the test substances to displace the selective NK2 receptor antagonist SR 48968 (= saredutant) used as reference ligand from its corresponding bond was determined.
The receptor binding studies were carried out with radioactively marked [^3H]-SR 48968 (from Amersham) as ligand. For the binding test, different samples of a membrane preparation of CHO cells (= egg cells of the Chinese hamster, Chinese hamster oocytes), which express the human NK2 receptor (for preparation, see N.P. Gerard et al., Journal of Biological Chemistry 265/33 (1990) 20455-20462), were incubated for 90 minutes (= min.) with a solution of the marked ligand, with the incubation mixtures containing no test substance or additions of different concentrations of test substance. Then in each case the membrane-bound ligands in the samples were separated from free ligands by filtration. The fraction remaining in the filter was washed several times with buffer solution, before its radioactivity was measured using a liquid scintillation counter. That concentration which effects half-maximum displacement of the bound reference ligand was determined as IC50 of the respective test substance. The inhibition constant (Ki value) of the test substance was calculated from the respective IC50 value, and was stated as the negative logarithmised value thereof (pKi).
If several measurements were performed, the average thereof was listed each time. The pKi value is a measurement of the affinity of the test substances to human NK2 receptors.

For assay [2], the target named is T4, NK2 receptors (Cavia porcellus, UniProt Q64077).
T4 sequence (Q64077 1-402): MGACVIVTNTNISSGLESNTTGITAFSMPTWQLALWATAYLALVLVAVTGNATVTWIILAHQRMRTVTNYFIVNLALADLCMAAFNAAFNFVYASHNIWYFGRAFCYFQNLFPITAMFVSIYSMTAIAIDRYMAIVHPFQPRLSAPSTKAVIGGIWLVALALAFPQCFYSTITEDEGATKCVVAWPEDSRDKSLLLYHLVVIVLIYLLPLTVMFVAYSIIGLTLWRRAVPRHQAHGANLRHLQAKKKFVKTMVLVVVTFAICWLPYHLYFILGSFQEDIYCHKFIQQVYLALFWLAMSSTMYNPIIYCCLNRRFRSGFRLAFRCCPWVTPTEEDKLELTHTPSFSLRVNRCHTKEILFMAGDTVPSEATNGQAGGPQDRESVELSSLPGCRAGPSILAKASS
Nature of the assay: NK-2-receptor-antagonistic effectiveness in vivo in anaesthetised guinea pigs (NKA test stimulus: late hypotension, bronchoconstriction, colonic pressure). Also on record: from tissue; host or cells: whole anaesthetised guinea pig (in vivo); species or system Pirbright-White guinea pigs. To be noted: guinea pig, iv.
Description: as §1, §2, §3, §4

In assay [3] the target is T5, cloned human NK1 receptors (Homo sapiens, UniProt P25103).
T5 construct: expressed in transfected cells
T5 sequence (P25103 whole entry): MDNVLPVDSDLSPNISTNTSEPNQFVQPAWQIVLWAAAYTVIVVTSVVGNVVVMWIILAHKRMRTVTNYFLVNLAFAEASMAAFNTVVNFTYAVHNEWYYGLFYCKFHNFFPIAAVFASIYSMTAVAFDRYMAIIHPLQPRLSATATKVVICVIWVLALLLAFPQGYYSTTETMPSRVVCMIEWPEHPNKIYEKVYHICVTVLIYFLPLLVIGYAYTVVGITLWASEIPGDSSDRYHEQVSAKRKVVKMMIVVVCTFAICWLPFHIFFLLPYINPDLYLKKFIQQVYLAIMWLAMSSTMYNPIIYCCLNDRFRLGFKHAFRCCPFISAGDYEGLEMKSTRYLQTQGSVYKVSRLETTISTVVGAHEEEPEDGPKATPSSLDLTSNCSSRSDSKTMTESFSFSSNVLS
Nature of the assay: Ca2+ measurements using FLIPR for NK1 activity in CHO cells. The assay is classed as cell-based. To be noted: substance P 10^-8 M as agonist; compound applied 7 min before; pA2 calculated from IC50. From the text: (§5) The NK receptor is coupled to Gq.
(§6) All steps were done under sterile conditions. […] The results are summarized in table 5: Table 5: pA2 data for NK1 and NK2: […]

Assay [4] concerns the target T6, cloned human NK2 receptors (Homo sapiens, UniProt P21452).
T6 construct: expressed in transfected cells
T6 sequence (P21452 1-398): T3 sequence (P21452 1-398)
Nature of the assay: Ca2+ measurements using FLIPR for NK2 activity in CHO cells. To be noted: NKA 10^-7 M as agonist; compound applied 7 min before; pA2 calculated from IC50. The assay is classed as cell-based.
Description: as §5, §6

For assay [5], the target named is T4, NK2 receptors. Nature of the assay: Functional NK2 antagonism on isolated guinea pig gall-bladder preparations (NKA induced contraction). Also on record: from tissue; host or cells: guinea pig gall-bladder preparations; species or system Pirbright-White guinea pigs. Here is the method:
The NK2 receptor-antagonising action of the test substances was determined on isolated gall-bladder preparations from Pirbright-White guinea pigs, held in an oxygen-saturated nutrient solution. To this end, the preparations were fastened on one hand in the nutrient solution to organ holders and on the other hand on a force meter by a thread.
The concentration of the test substances was increased iteratively in the subsequent experiments as a function of the result in logarithmic whole or half steps, until at least one concentration above or below 50% inhibition of contraction was determined (up to at most 10^-5 mol/l). For each concentration, the average value of inhibition of contraction was calculated from 2 to 4 preparations. In each case, the concentration of half-maximum inhibition (IC50) per test substance was calculated as characteristic variable.

The target of assay [6] is T2, NK1 receptors. Nature of the assay: Functional NK1 antagonism on isolated guinea pig aorta ring preparations (Substance P induced relaxation). Also noted: from tissue; host or cells: guinea pig aorta ring preparations; species or system Pirbright-White guinea pigs. Here is the method:
In The Netherlands, the action antagonistic to NK1 receptors of the test substances was measured in vitro on isolated ring preparations, kept in an oxygenated nutrient solution, of the aortas of Pirbright-White guinea pigs.
In order to measure the contraction of the vessel muscles, the preparations were fixed to a hook, joined by a thread to a force measuring apparatus and the contractions were recorded in each case on a plotter. The aorta preparations were tonicised with phenylephrine. […] The relaxations before and after the administration of the test substance were quantified in percent. The effective concentration of the half maximum inhibition of the relaxation of the tone (= EC50) was calculated. The negative common logarithm of the EC50 value (= pEC50) was given as characteristic variable. The pEC50 value is a measurement of the functional effectiveness of the test substances on NK1 receptors.

[7] abbreviates: read-out: ED50 iv after 1 min (cumulative) NK2 (broncho-constriction).
[8] abbreviates: read-out: ED50 iv after 1 min (cumulative) NK2 (colonic motility).
[9] abbreviates: read-out: ED50 iv after 1 min (cumulative) NK2 (late hypotension).

This is an account of results in patent EP1954678B1, “NOVEL NK1 AND NK2 ANTAGONISTS” (Abbott Products GmbH, priority 2005, dated 2007).

Like-named read-outs stand apart in the source and are kept apart here.

T1 sequence (P25103 whole entry): as above

Turning to `CN(C[C@@H](CCN1CCN([C@@H](c2ccsc2)[C@H]2COC(=O)O2)CC1)c1ccc(Cl)c(Cl)c1)C(=O)c1cc(C#N)cc2ccccc12` [Compound 10, 3-cyano-N-[(2S)-2-(3,4-dichlorophenyl)-4-{4-[(S)-[(4S)-2-oxo-1,3-dioxolan-4-yl](3-thienyl)methyl]piperazin-1-yl}butyl]-N-methyl-1-naphthamide], the results for the Ki at human NK1 receptors and on human NK2 receptors were 0.01 µM and 0.1 µM, respectively. The ED50 (commonly the dose at which the effect has come halfway, by size or by number of responders) was 0.041 µmol/kg on NK1 receptors [1], 0.045 µmol/kg at NK2 receptors [2] (setting [7]), 0.109 µmol/kg on NK2 receptors [2] (setting [8]) and 0.04 µmol/kg at NK2 receptors [2] (setting [9]).
For `CN(C[C@@H](CCN1CCN([C@@H](c2ccsc2)[C@H](O)CO)CC1)c1ccc(Cl)c(Cl)c1)C(=O)c1cc(C#N)cc2ccccc12` [Compound 8, 3-cyano-N-[(2S)-2-(3,4-dichlorophenyl)-4-{4-[(1S,2S)-2,3-dihydroxy-1-(3-thienyl)propyl]piperazin-1-yl}butyl]-N-methyl-1-naphthamide], the Ki was 0.00794 µM on human NK1 receptors and 0.0316 µM on human NK2 receptors. Also, the Kb in assay [3] is 0.000631 µM; in assay [4], 0.00126 µM. The ED50 on NK1 receptors [1] is 0.07 µmol/kg; on NK2 receptors [2] (setting [7]), 1.13 µmol/kg; on NK2 receptors [2] (setting [8]), 0.135 µmol/kg; at NK2 receptors [2] (setting [9]), 0.803 µmol/kg.
For the molecule `CN(C[C@@H](CCN1CCN([C@@H](c2ccccc2)[C@H](O)CO)CC1)c1ccc(Cl)c(Cl)c1)C(=O)c1cc(C#N)cc2ccccc12` [Compound 23, 3-cyano-N-[(2S)-2-(3,4-dichlorophenyl)-4-{4-[(1S,2S)-2,3-dihydroxy-1-phenylpropyl]piperazin-1-yl)butyl]-N-methyl-1-naphthamide], the ED50 on NK1 receptors [1] is 0.029 µmol/kg; on NK2 receptors [2] (setting [7]), 0.725 µmol/kg; at NK2 receptors [2] (setting [8]), 0.961 µmol/kg; at NK2 receptors [2] (setting [9]) it was 1.17 µmol/kg.
For `CN(C[C@@H](CCN1CCN([C@@H](c2ccsc2)[C@H](O)[C@@H](O)[C@H](O)CO)CC1)c1ccc(Cl)c(Cl)c1)C(=O)c1cc(C#N)cc2ccccc12` [Compound 5, 3-cyano-N-[(2S)-2-(3,4-dichlorophenyl)-4-{4-[(1S,2S,3R,4R)-2,3,4,5-tetrahydroxy-1-(3-thienyl)pentyl]piperazin-1-yl}butyl]-N-methyl-1-naphthamide], the midpoint of inhibition at NK2 receptors [5], the IC50, lay at 0.0316 µM. Further, the Ki is 0.00126 µM on human NK1 receptors and 0.0501 µM at human NK2 receptors. The 50% effective concentration (EC50) – broadly, the concentration that produces a half-maximal response – at NK1 receptors [6] was 0.0001 µM.
`CN(C[C@@H](CCN1CCN([C@@H](c2cccs2)[C@H](O)CO)CC1)c1ccc(Cl)c(Cl)c1)C(=O)c1cc(C#N)cc2ccccc12` [Compound 9, 3-cyano-N-[(2S)-2-(3,4-dichlorophenyl)-4-{4-[(1R,2S)-2,3-dihydroxy-1-(2-thienyl)propyl]piperazin-1-yl}butyl]-N-methyl-1-naphthamide]: the Ki at human NK1 receptors is 0.01 µM; at human NK2 receptors, 0.0631 µM. In assay [3], the Kb is 0.00316 µM. Further, the 50% effective dose (ED50) amounted to 0.099 µmol/kg on NK1 receptors [1], 0.943 µmol/kg at NK2 receptors [2] (setting [7]), 0.287 µmol/kg at NK2 receptors [2] (setting [8]) and 1.04 µmol/kg on NK2 receptors [2] (setting [9]).
